Measured values from ChEMBL document CHEMBL1201862, “PubChem BioAssay data set” (2004).
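48-hour exposure; five concentrations; linearly interpolated endpoints. GI50: concentration for 50% inhibition of growth.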 The source made the active and inactive calls. Rule as the data show it: active = GI50 up to about 1.1 µM and inactive = higher.

What was measured:
Experiment in all cases: NCI anticancer screen, dose series, 48 h
[1] = test system: 786-0
[2] = test system: CAKI-1
[3] = test system: EKVX
[4] = test system: HCC 2998
[5] = test system: HCT-116
[6] = test system: HL-60
[7] = test system: MCF7
[8] = test system: MOLT-4
[9] = test system: Malme-3M
[10] = test system: NCI-H460
[11] = test system: NCI-H522
[12] = test system: OVCAR-4
[13] = test system: OVCAR-8
[14] = test system: PC-3
[15] = test system: SN12C
[16] = test system: SNB-19
[17] = test system: UACC-62
[18] = test system: Hs-578T

Measured: GI50

COc1ccc(C(=O)c2[nH]c(Nc3cc(C)ccn3)c(C(=S)Nc3ccccc3)c2N)cc1
inactive: [1] 21 µM | [2] 36.6 µM | [3] 22.3 µM | [4] 17.1 µM | [5] 20.7 µM | [6] 24.3 µM | [7] 20.4 µM | [8] 23.4 µM | [9] 14.6 µM | [10] 6.04 µM | [11] 13.8 µM | [12] 10.9 µM | [13] 17.2 µM | [14] 21.2 µM | [15] 18.2 µM | [16] 18.8 µM | [17] 12.9 µM

CCOC(=O)c1c(-c2ccc(OC)cc2)c(C#N)c(=S)n(C2OC(CO)C(O)C(O)C2O)c1C (stereo unspecified)
inactive: [1] > 100 µM | [2] 87.7 µM | [3] > 100 µM | [4] > 100 µM | [5] > 100 µM | [6] > 100 µM | [7] > 100 µM | [8] > 100 µM | [9] > 100 µM | [11] > 100 µM | [12] > 100 µM | [13] > 100 µM | [14] > 100 µM | [15] > 100 µM | [16] > 100 µM

CNC(=S)N/N=C(\C)c1cc(OC)ccc1O
inactive: [1] > 100 µM | [2] > 100 µM | [3] > 100 µM | [4] > 100 µM | [5] > 100 µM | [6] > 31.4 µM | [18] > 100 µM | [8] > 65.6 µM | [9] > 100 µM | [10] > 100 µM | [11] 3.9 µM | [12] > 100 µM | [13] > 100 µM | [14] > 96.4 µM | [15] > 100 µM | [16] > 100 µM | [17] > 100 µM

c1ccc(C2CC(N3CCOCC3)=Nc3ccccc3N2)cc1 (stereo unspecified)
inactive: [1] > 100 µM | [2] > 100 µM | [3] > 100 µM | [5] > 100 µM | [6] > 100 µM | [18] > 100 µM | [8] 70.6 µM | [9] 80.9 µM | [10] > 100 µM | [11] > 100 µM | [12] > 100 µM | [13] > 100 µM | [14] > 100 µM | [15] > 100 µM | [16] > 100 µM | [17] > 100 µM

Cn1c(=O)c2nc(CCNC(=O)c3ccccc3)[nH]c2n(C)c1=O
inactive: [1] > 100 µM | [2] > 100 µM | [3] > 100 µM | [4] > 100 µM | [5] > 100 µM | [18] > 100 µM | [8] > 100 µM | [9] > 100 µM | [10] > 100 µM | [11] > 100 µM | [12] > 100 µM | [13] > 100 µM | [14] > 100 µM | [15] > 100 µM | [16] > 100 µM | [17] > 100 µM

COc1ccc(N2C(=O)C3c4[nH]c5ccccc5c4C4c5ccccc5CC4C3C2=O)cc1 (stereo unspecified)
inactive: [1] > 100 µM | [2] > 100 µM | [3] > 100 µM | [4] > 100 µM | [5] > 100 µM | [6] > 100 µM | [7] > 100 µM | [8] > 100 µM | [9] > 100 µM | [10] > 100 µM | [11] > 100 µM | [12] > 100 µM | [13] > 100 µM | [14] > 100 µM | [15] > 100 µM | [16] > 100 µM | [17] > 100 µM

NC(=O)C[S+]([O-])CC(N)C(=O)O (stereo unspecified)
inactive: [1] > 100 µM | [2] > 100 µM | [3] > 100 µM | [4] > 100 µM | [5] > 100 µM | [18] > 100 µM | [8] > 100 µM | [9] > 100 µM | [10] > 100 µM | [11] > 100 µM | [12] > 100 µM | [13] > 100 µM | [14] > 100 µM | [15] > 100 µM | [16] > 100 µM | [17] > 100 µM

CN(C)c1cccc2c(S(=O)(=O)NCCN)cccc12 [DANSYL ETHYLENEDIAMINE]
inactive: [1] > 100 µM | [2] > 100 µM | [3] > 100 µM | [4] 39.5 µM | [5] 35.2 µM | [6] 9.91 µM | [18] > 100 µM | [8] > 100 µM | [9] > 100 µM | [10] > 100 µM | [11] > 100 µM | [12] > 100 µM | [14] > 100 µM | [15] > 100 µM | [16] > 100 µM | [17] > 100 µM

O=CNNC(=O)Nc1ccc(Cl)cc1
inactive: [1] > 100 µM | [3] > 100 µM | [4] > 100 µM | [5] > 100 µM | [6] > 100 µM | [18] > 100 µM | [7] > 100 µM | [8] > 100 µM | [9] > 100 µM | [12] > 100 µM | [13] > 100 µM | [15] > 100 µM | [16] 95.7 µM | [17] > 100 µM

CCOC(=O)c1c(C)nc2c(c1-c1cn(-c3ccccc3)nc1-c1ccccc1)C(=O)c1ccccc1-2
inactive: [1] > 100 µM | [2] > 100 µM | [3] > 100 µM | [5] > 100 µM | [18] > 100 µM | [8] > 100 µM | [9] > 100 µM | [11] > 100 µM | [12] > 100 µM | [13] > 100 µM | [14] > 100 µM | [15] > 100 µM | [16] > 100 µM | [17] > 100 µM

O=C(CN1CCCCC1)Nc1ccc2c(c1)C1Oc3ccccc3CC1CO2 (stereo unspecified)
inactive: [1] 20.7 µM | [2] 35.9 µM | [3] 17.2 µM | [4] 19.1 µM | [5] 16.2 µM | [6] 46.1 µM | [7] 21.8 µM | [8] 31.5 µM | [9] 16.7 µM | [11] 17.9 µM | [13] 39 µM | [14] 17.7 µM | [15] 28.4 µM | [17] 16.4 µM

C=CCc1cccc2cc(C(N)=O)c(=N)oc12
inactive: [1] 73.8 µM | [2] > 100 µM | [4] > 100 µM | [5] 78.2 µM | [6] > 100 µM | [18] > 10 µM | [8] > 100 µM | [10] > 100 µM | [12] > 100 µM | [13] > 100 µM | [14] > 100 µM | [15] > 100 µM | [16] > 100 µM | [17] 71.8 µM

CCCCc1ccc(Nc2nc(Cl)c3ncn(C4CC(Oc5ccc(C)cc5)C(COc5ccc(C)cc5)O4)c3n2)cc1 (stereo unspecified)
inactive: [1] > 100 µM | [2] 6.52 µM | [3] > 100 µM | [4] 44.9 µM | [5] > 100 µM | [6] 89.9 µM | [18] > 100 µM | [7] > 100 µM | [8] > 100 µM | [9] > 100 µM | [11] > 100 µM | [13] > 100 µM | [15] > 100 µM | [16] > 100 µM | [17] > 100 µM
